Assay results reported in US5120738A, “Pantothenic acid derivatives” (Fujirebio Inc., priority 1990, dated 1992).

Target: T1, acyl CoA-cholesterol-acyltransferase (ACAT) (Rattus norvegicus, UniProt Q7TQM4)
T1 construct: a microsome fraction prepared from a rat liver; from tissue; host or cells: rat liver microsome fraction
T1 sequence (Q7TQM4 1-524): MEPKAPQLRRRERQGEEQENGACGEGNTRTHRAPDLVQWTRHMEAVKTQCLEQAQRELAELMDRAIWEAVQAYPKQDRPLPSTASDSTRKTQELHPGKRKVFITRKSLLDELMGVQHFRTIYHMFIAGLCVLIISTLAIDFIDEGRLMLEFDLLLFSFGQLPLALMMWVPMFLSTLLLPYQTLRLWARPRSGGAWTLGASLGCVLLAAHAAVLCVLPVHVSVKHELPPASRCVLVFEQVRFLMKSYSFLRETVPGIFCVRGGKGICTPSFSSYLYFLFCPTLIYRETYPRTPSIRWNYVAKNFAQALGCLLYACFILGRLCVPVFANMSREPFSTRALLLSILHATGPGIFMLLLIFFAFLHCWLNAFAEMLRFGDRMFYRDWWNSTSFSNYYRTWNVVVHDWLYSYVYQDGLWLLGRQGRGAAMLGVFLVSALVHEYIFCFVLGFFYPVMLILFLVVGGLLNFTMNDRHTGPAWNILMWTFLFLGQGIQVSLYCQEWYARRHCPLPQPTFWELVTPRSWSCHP
Test: ACAT inhibition test (cholesteryl oleate formed from [1-14C]oleoylCoA, rat liver microsome fraction)
Format: biochemical
Settings: for inhibition at 1 µM: 10^-6 M test drug, 37° C., 4 minutes, relative to control without test compound; for IC50: in square brackets behind the % inhibition, range in parentheses not explained, read-out: ACAT inhibition [IC50 × 10^-7 M]
Experimental: ACAT inhibition tests were carried out by measuring cholesteryl oleate produced from [1-^14 C]oleoylCoA and endocellular cholesterol similarly to the method of Helgerud et al. [cf.
Thereafter, 4.2 ml of methanol and 8.3 ml of chloroform were added to the reaction mixture to stop the reaction. Then, 2.5 ml of water was added and after shaking the mixture sufficiently a chloroform layer was separated. After concentrating it, the chloroform layer was subjected to thin layer chromatography. The cholesteryl oleate formed was separated and its radioactivity was measured by a liquid scientilaltion counter.
On the other hand, the same tests as above were repeated without using test compounds. The radioactivity of the control thus obtained was used as a standard for calculating the ACAT inhibiting activity of each test compound.

inhibition at 1 µM | IC50 | Structure (SMILES)
61.1% | – | CCCCCCCC/C=C\CCCCCCCC(=O)N1CCCC(NC(=O)CCNC(=O)C2OC(C)(C)OCC2(C)C)C1 (single isomer, unassigned) [Example 171]
– | 295 nM | CCCCCCCC/C=C\CCCCCCCC(=O)Nc1ccccc1NC(=O)CCNC(=O)C1OC(C)(C)OCC1(C)C (stereo not drawn) [Example 1, N-[2-(Oleoylamino)phenyl]-3-[N-(2,2,5,5-tetramethyl-1,3-dioxane-4-carbonyl)amino]propanamide]
79.8% | – | CCCCC/C=C\C/C=C\CCCCCCCC(=O)Nc1ccccc1NC(=O)CCNC(=O)C1OC(C)(C)OCC1(C)C (stereo not drawn) [Example 4, N-2-(Linoleoylamino)phenyl]-3-[[N-(2,2,5,5-tetramethyl-1,3-dioxane-4-carbonyl)amino]propanamide]
56% | – | CC/C=C\C/C=C\C/C=C\CCCCCCCC(=O)Nc1ccccc1NC(=O)CCNC(=O)C1OC(C)(C)OCC1(C)C (stereo not drawn) [Example 5]
51.8% | – | CCCCC/C=C\C/C=C\CCCCCCCC(=O)Nc1cccc(NC(=O)CCNC(=O)C2OC(C)(C)OCC2(C)C)c1 (stereo not drawn) [Example 9, [N-3-(Linoleylamino)phenyl]-3-[N-(2,2,5,5-tetramethyl-1,3-dioxane-4-carbonyl)amino]propanamide]
79.6% | – | CCCCCCCC/C=C\CCCCCCCC(=O)Nc1ccccc1OC(=O)CCNC(=O)C1OC(C)(C)OCC1(C)C (stereo not drawn) [Example 15, 2-(Oleoylamino)phenyl 3-[N-(2,2,5,5-tetramethyl-1,3-dioxane-4-carbonyl)amino]propionate]
– | 299 nM | CCCCCCCC/C=C\CCCCCCCC(=O)NCCNC(=O)CCNC(=O)C1OC(C)(C)OCC1(C)C (stereo not drawn) [Example 33]
– | 385 nM | CCCCCCCC/C=C\CCCCCCCC(=O)NCCCNC(=O)CCNC(=O)C1OC(C)(C)OCC1(C)C (stereo not drawn) [Example 34]
– | 286 nM | CCCCCCCC/C=C\CCCCCCCC(=O)NCCCCNC(=O)CCNC(=O)C1OC(C)(C)OCC1(C)C (stereo not drawn) [Example 37, N-(4-Oleoylaminobutyl)-3-[N-(2,2,5,5-tetramethyl-1,3-dioxane-4-carbonyl)amino]propanamide]
– | 686 nM | CCCCCCCC/C=C\CCCCCCCC(=O)NCCOC(=O)CCNC(=O)C1OC(C)(C)OCC1(C)C (stereo not drawn) [Example 44, 2-(N-Oleoylamino)ethyl 3-[N-(2,2,5,5-tetramethyl-1,3-dioxane-4-carbonyl)amino]propionate]
– | 250 nM | CCCCCCCC/C=C\CCCCCCCC(=O)NCCCOC(=O)CCNC(=O)C1OC(C)(C)OCC1(C)C (stereo not drawn) [Example 47, 3-(N-oleoylamino]propyl 3-[N-(2,2,5,5-tetramethyl-1,3-dioxane-4-carbonyl)amino]propionate]
– | 355 nM | CCCCCCCC/C=C\CCCCCCCC(=O)NCCCCCOC(=O)CCNC(=O)C1OC(C)(C)OCC1(C)C (stereo not drawn) [Example 66]
– | 389 nM | CCCCCCCC/C=C\CCCCCCCC(=O)NCCCCCCOC(=O)CCNC(=O)C1OC(C)(C)OCC1(C)C (stereo not drawn) [Example 67]
– | 162 nM | CCCCCCCC/C=C\CCCCCCCC(=O)N[C@H]1CCCC[C@@H]1NC(=O)CCNC(=O)C1OC(C)(C)OCC1(C)C (stereo partly drawn) [Example 70, N-[(1S,2S)-2-(Oleoylamino)cyclohexane]-3-[N-(2,2,5,5-tetramethyl-1,3-dioxane-4-carbonyl)amino]propanamide]
– | 198 nM | CCCCCCCC/C=C\CCCCCCCC(=O)N[C@H]1CCCC[C@@H]1NC(=O)CCNC(=O)[C@H](OC(C)=O)C(C)(C)COC(C)=O [Example 71]
– | 155 nM | CCCCCCCC/C=C\CCCCCCCC(=O)N[C@H]1CCCC[C@@H]1NC(=O)CCNC(=O)[C@H](O)C(C)(C)CO [Example 74, N-[(1S,2S)-2-(Oleoylamino)cyclohexane-1-yl]-3-[N-[(2R)-2,4-dihydroxy-3,3-dimethyl-1-oxobutyl]amino]propanamide]
– | 210 nM | CCCCCCCC/C=C\CCCCCCCC(=O)N[C@@H]1CCCC[C@H]1OC(=O)CCNC(=O)C1OC(C)(C)OCC1(C)C (stereo partly drawn) [Example 77, (1R,2R)-2-(Oleoylamino)cyclohexane-1-yl 3-[N-(2,2,5,5-tetramethyl-1,3-dioxane-4-carbonyl)amino]propionate]
– | 40.1 nM | CCCCCCCC/C=C\CCCCCCCC(=O)N[C@H]1CCCC[C@@H]1OC(=O)CCNC(=O)C1OC(C)(C)OCC1(C)C (stereo partly drawn) [Example 78, (1S,2S)-2-(Oleoylamino)cyclohexane-1-yl 3-[N-(2,2,5,5-tetramethyl-1,3-dioxane-4-carbonyl)amino]propionate]
– | 108 nM | CCCCC/C=C\C/C=C\CCCCCCCC(=O)N[C@H]1CCCC[C@@H]1OC(=O)CCNC(=O)C1OC(C)(C)OCC1(C)C (stereo partly drawn) [Example 80, (1S,2S)-2-(Linoleoylamino)cyclohexane-1-yl 3-[N-(2,2,5,5-tetramethyl-1,3-dioxane-4-carbonyl)amino]propionate]
65.7% | – | CCCCCCCC/C=C\CCCCCCCC(=O)NC[C@@H]1CCCN1C(=O)CCNC(=O)C(O)C(C)(C)CO (stereo partly drawn) [Example 166]
64% | – | CCCCCCCC/C=C\CCCCCCCC(=O)NC[C@H]1CCCN1C(=O)CCNC(=O)C1OC(C)(C)OCC1(C)C (stereo partly drawn) [Example 167]
75.7% | – | CCCCCCCC/C=C\CCCCCCCC(=O)NC1CCCN(C(=O)CCNC(=O)C2OC(C)(C)OCC2(C)C)C1 (stereo not drawn) [Example 168]
58.3% | – | CCCCCCCC/C=C\CCCCCCCC(=O)NC1CCCN(C(=O)CCNC(=O)C(O)C(C)(C)CO)C1 (stereo not drawn) [Example 169]
18.9% | – | CCCCCCCC/C=C\CCCCCCCC(=O)N1CCN(C(=O)CCNC(=O)C(O)C(C)(C)CO)CC1 (stereo not drawn) [Example 193]
48.7% | – | CCCCCCCC/C=C\CCCCCCCC(=O)N1CCCN(C(=O)CCNC(=O)C(O)C(C)(C)CO)CC1 (stereo not drawn) [Example 195]
84.3% | – | CCCCCCCCC=CCCCCCCCNC(=O)N1CCN(C(=O)CCNC(=O)C2OC(C)(C)OCC2(C)C)CC1 (stereo not drawn) [Example 198]
53.7% | – | CCCCCCCCCCC(C)C(=O)N1CCN(C(=O)CCNC(=O)C2OC(C)(C)OCC2(C)C)CC1 (stereo not drawn) [Example 199]

Structure (SMILES) | inhibition at 1 µM | IC50
CCCCCCCC/C=C\CCCCCCCC(=O)Nc1ccccc1NC(=O)CCNC(=O)C(OC(C)=O)C(C)(C)COC(C)=O (stereo not drawn) [Example 2, N-[2-(Oleoylamino)phenyl]-3-[N-(2,4-diacetoxy-3,3-dimethyl-1-oxobutyl)amino]propanamide] | 64.8% | 274 nM
CCCCCCCC/C=C\CCCCCCCC(=O)N1CCCN(C(=O)CCNC(=O)C(OC(C)=O)C(C)(C)COC(C)=O)CC1 (stereo not drawn) [Example 194, 1-Oleoyl-4-(1-oxo-3-N-(1-oxo-2,4-diacetoxy-3,3-dimethylbutyl)aminopropyl)tetrahydro-1,4-diazepine] | 62.6% | –
